The target in the assay is T1, USP8 (Homo sapiens, UniProt P40818).
T1 sequence (P40818 1-1118): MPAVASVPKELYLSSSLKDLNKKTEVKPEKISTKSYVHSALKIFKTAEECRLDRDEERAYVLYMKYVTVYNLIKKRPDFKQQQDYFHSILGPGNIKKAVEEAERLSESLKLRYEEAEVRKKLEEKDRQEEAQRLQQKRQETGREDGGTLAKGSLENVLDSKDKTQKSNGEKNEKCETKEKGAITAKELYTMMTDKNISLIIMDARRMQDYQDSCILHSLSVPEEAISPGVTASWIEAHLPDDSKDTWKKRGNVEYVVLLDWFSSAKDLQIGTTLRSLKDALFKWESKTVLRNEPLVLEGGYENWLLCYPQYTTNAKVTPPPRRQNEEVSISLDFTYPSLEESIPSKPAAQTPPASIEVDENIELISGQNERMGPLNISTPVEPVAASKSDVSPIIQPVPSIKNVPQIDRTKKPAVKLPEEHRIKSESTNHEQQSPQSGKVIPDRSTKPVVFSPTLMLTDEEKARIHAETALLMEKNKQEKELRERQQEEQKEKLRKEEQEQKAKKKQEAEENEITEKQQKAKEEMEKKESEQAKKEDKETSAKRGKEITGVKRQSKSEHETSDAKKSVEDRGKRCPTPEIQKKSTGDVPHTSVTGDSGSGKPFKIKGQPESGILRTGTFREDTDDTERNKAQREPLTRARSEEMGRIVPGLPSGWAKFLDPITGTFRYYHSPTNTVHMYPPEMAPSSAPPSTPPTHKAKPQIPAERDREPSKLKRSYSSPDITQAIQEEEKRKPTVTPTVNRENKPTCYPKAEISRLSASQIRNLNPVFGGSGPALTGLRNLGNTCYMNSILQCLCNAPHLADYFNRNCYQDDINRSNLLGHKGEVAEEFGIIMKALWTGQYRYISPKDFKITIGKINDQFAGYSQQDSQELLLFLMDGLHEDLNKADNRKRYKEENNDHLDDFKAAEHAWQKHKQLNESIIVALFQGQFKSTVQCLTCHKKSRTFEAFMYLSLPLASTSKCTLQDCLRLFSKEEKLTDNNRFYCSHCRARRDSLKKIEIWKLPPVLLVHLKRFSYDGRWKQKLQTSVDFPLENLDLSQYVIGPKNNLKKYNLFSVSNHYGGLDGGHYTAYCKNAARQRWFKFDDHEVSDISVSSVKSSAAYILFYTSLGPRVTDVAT
Nature of the assay: Isopeptidase cleavage of substrates (DUB-Glo luminescence / fluorescence), S/B. It counts as biochemical. The note with it: USP8 0.5 nM. How it is done:
The Ub-amino-luciferin substrate was compared to the Z-Arg-Leu-Arg-Gly-Gly (SEQ ID NO: 1)-amino-luciferin substrate (Promega DUB-Glo™ substrate) to determine the limit of detection of the activities of four different isopeptidases (UCHL3, USP2core, USP7, and USP8). For all enzymes, these two substrates were tested in parallel using the DUB-Glo™ assay system (Promega) according to the manufacturer's instructions. All enzymes were diluted into 50 mM HEPES, pH 7.5, 10 mM DTT, 0.1% Prionex (Sigma-Aldrich). For testing Z-Arg-Leu-Arg-Gly-Gly (SEQ ID NO: 1)-amino-luciferin, final isopeptidase concentrations were as follows: UCHL3 equal to approximately 0.35 to 50 nM; USP2core equal to approximately 10 to 500 nM, USP7 equal to approximately 0.1 to 50 nM, and USP8 equal to approximately 20 to 500 nM. For testing Ub-amino-luciferin, final isopeptidase concentrations were as follows: UCHL3 equal to approximately 0.05 to 50 pM; USP2core, USP7, and USP8 equal to approximately 0.5 to 500 pM. Reactions were assembled through addition of 50 μl of diluted enzyme and 50 μl of DUB-Glo™ reaction mixture supplemented with either Z-Arg-Leu-Arg-Gly-Gly (SEQ ID NO: 1)-amino-luciferin (final concentration of 20 μM) or Ub-amino-luciferin (final concentration of 100 nM). The signal in relative luminescence units (RLUs) was measured at 30 minutes from reaction assembly on an Envision multi-label plate reader (Perkin Elmer). The signal to background ratio (S/B) was calculated as (maximum signal−signal in absence of enzyme)/(signal in absence of enzyme).
The Ub-amino-luciferin (Ub-LUC) substrate was compared to the Ub-AMC substrate (FIG. 3) and the Ub-Rhodamine110 (Ub-Rho) substrate (FIG. 4), to determine the limit of detection for the activities of four different isopeptidases (UCHL3, USP2core, USP7, and USP8). All enzymes were diluted into 50 mM Tris, pH 8.0, 5 mM DTT, 0.05% (w/v) CHAPS. Final isopeptidase concentrations were as follows: UCHL3 equal to approximately 2 pM to 40 pM; USP2core, USP7, and USP8 were equal to approximately 10 to 1000 nM. Either Ub-AMC or Ub-Rhodamine110 (final concentration equal to 250 nM) were diluted into 50 mM Tris, pH 8.0, 5 mM DTT, 0.05% (w/v) CHAPS. Reactions were assembled through the addition of 50 μl diluted isopeptidase to 50 μl of either Ub-AMC or Ub-Rhodamine110, and the signal in relative fluorescence units (RFUs) was measured at 30 minutes on an Envision multi-label plate reader (Perkin Elmer). For Ub-AMC, fluorescence was monitored with filters corresponding to excitation at 340 nm and emission at 460 nm. For Ub-Rhodamine110, fluorescence was monitored with filters corresponding to excitation at 485 nm and emission at 531 nm. The signal to background (S/B) was calculated as (maximum signal−signal in absence of enzyme)/(signal in absence of enzyme).

Results on one substance are retold here after patent US20120058499A1, “Bioluminescent Detection of Protease Activity” (priority 2010, published 2012).

With Ub(1-76)-aminoluciferin [Ub-LUC], the “S/B increase relative to both Ub-AMC and Ub-Rhodamine110” value was about 100 fold.
